Source: paper PMC11588021, “Sequence-defined phosphoestamers for selective inhibition of the KRAS^G12D/RAF1 interaction” (Chemical Science, 2024)
“And” between values parts separate entries of the source, which are not always exact repeats. Equal values may be shown once. “Also recorded” adds a separate entry of the source. Blank lines part the entries; values can stand above or below the compound they belong to.

Legend:
[1] = molecular target: T1, KRAS^G12D-GMPPnP / RAF1-RBD-GFP interaction (Homo sapiens, UniProt P01116, G12D); experiment: KRAS^G12D/RAF1-RBD interaction assay (plate coated with KRAS, RAF1-RBD-GFP fluorescence); type: biochemical
T1 construct: and KRas4B(1-169)[G12D], optimised for expression in E.coli; His6 (N); Avi tag (biotinylated with BirA) (N); TEV site (N); made in house; host or cells: E. coli BL21(DE3) Gold for KRAS; E. coli BL21(DE3) for RAF1-RBD-GFP
Experimental: Phosphoestamers O1–O6 were resynthesised on a 1 μmol scale using the DNA synthesiser and the yields were determined by manually cleaving the final DMT protecting group of each molecule and quantifying the DMT cation by UV-visible spectroscopy (ESI Section 2.4 ^†). The achievement of desired length and purity was confirmed by polyacrylamide gel electrophoresis (Fig. 5a). The resynthesised phosphoestamers were purified away from smaller molecules using C18 spin tips. To ensure the assay was viable, a positive control Ch-3 (Fig. 5a) known to disrupt KRAS^G12D interactions[50] was synthesised. […] Any KRAS sites not blocked by the phosphoestamers would interact with the RAF1-GFP and result in a fluorescent signal which would be detected. In this assay, we first established that both KRAS^G12D-GMPPnP and RAF1-RBD-GFP were required to give a fluorescence signal.
To the 96 well plate, 100 µL was added to each well containing 2 µg/mL KRASG12D-GMPPnP or KRASWT-GMPPnP in coating buffer (see buffers, page 3). […] The emission spectrum o f GFP (490 – 560 nm) was measured on the plate reader.
GraphPad Prism (9.5.1) was used to calculate the area under the curve (AUC) of the emission spectra between 490 and 540 nm. IC50 values were calculated on GraphPad Prism, using the non-linea r regression fit (Sigmoidal, 4PL, X is concentration) analysis. […]

[2] = molecular target: T2, KRAS^WT-GMPPnP / RAF1-GFP interaction (Homo sapiens, UniProt P01116); experiment: KRAS^WT/RAF1-RBD interaction assay (same plate assay); type: biochemical; conditions: 'high' and 'low' concentrations, approximately IC50 ÷ 3 and IC50 × 3
T2 construct: and KRas4B(1-169)[G12D], optimised for expression in E.coli; His6 (N); Avi tag (biotinylated with BirA) (N); TEV site (N); made in house; host or cells: E. coli BL21(DE3) Gold for KRAS; E. coli BL21(DE3) for RAF1-RBD-GFP
Experimental: Since four phosphoestamers were determined to have consistent dissociation activity between KRAS^G12D-GMPPnP and RAF1-GFP, we then used the same assay to determine whether these molecules would have any activity against KRAS^WT-GMPPnP or whether they would be selective for the mutant form (Fig. 5e).
To the 96 well plate, 100 µL was added to each well containing 2 µg/mL KRASG12D-GMPPnP or KRASWT-GMPPnP in coating buffer (see buffers, page 3). The plate was shaken on a plate rotator at 300 rpm and left to incubate at 4 °C overnight. After incubation, the KRASG12D/WT solution was removed, and the plate was then washed with 100 µL per well of blocking buffer twice. 100 µL of blocking buffer was then added per well and the plate was incubated at 37 °C for one hour. […] The emission spectrum o f GFP (490 – 560 nm) was measured on the plate reader.
GraphPad Prism (9.5.1) was used to calculate the area under the curve (AUC) of the emission spectra between 490 and 540 nm. IC50 values were calculated on GraphPad Prism, using the non-linea r regression fit (Sigmoidal, 4PL, X is concentration) analysis.
To the well plate, 100 µL was added to each well containing 2 µg/mL of the 4:1 conjugate of KRASG12D-G M PP nP -streptavidin fluorescein in coating buffer. […] The emission spectrum of fluorescein (500 – 600 nm) was measured using the plate reader. […]

[3] = tested on: KRAS^G12D (inactive GDP-form); set-up: method as in PMID 34889605; conditions: binds to the inactive GDP-form of the protein; cited from earlier work

IC50 ([1]; AUC of GFP emission 490-540 nm, three biological repeats (O4 n = 4)): < 100 nM and 70.9 nM
Compound: NDI-C12-C12-C12-NDI-BPA [Phosphoestamer O2]
Effect on KRAS^WT-GMPPnP/RAF1-GFP interaction [2]: only O5 caused a decrease in fluorescent signal; also recorded: inactive

IC50 ([1]; positive control, n = 3): 6350 ± 200 nM
Compound: COc1cccc(-c2ccc(Nc3ccc(CN(C)C)cc3)c(OC)c2F)c1 [Ch-3, reference compound]

Compound: C#Cc1c(F)ccc2cc(O)cc(-c3ncc4c(N5CC6CCC(C5)N6)nc(OC[C@@]56CCCN5C[C@H](F)C6)nc4c3F)c12 [MRTX1133]
IC50 [3]: 5 nM
